Measurements as given in patent US7585851B2, “3′-prodrugs of 2′-deoxy-β-L-nucleosides” (priority 2000, dated 2009).
Converted amounts (≈) assume the structure as drawn. “And” between values parts separate entries of the source, which are not always exact repeats. Equal values may be shown once. Where a name gives a salt, the structure may show the parent alone. Read-outs that look alike come from different tables or passages of the source.

How the values were obtained:
[1] = Mitochondrial toxicity assay in HepG2 cells; assay type: cell-based, human; settings: human
HepG2 cells [2] = test: Mitochondrial toxicity assay in HepG2 cells; assay type: cell-based, human; settings: human
[3] = test system: cytosolic extracts of HepG2 cells; test: Steady state phosphorylation kinetics in HepG2 cytosolic extracts; assay type: biochemical, human
[4] = monkey, in vivo, po
[5] = test system: human granulocyte-macrophage colony-forming (CFU-GM) progenitor cells; assay type: cell-based; settings: human bone marrow clonogenic assay
Source text: (§1) In particular, anemia and neutropenia are the most common drug-related clinical toxicities associated with the anti-HIV drug zidovudine (ZDV).

[6] = test system: human erythroid burst-forming (BFU-E) progenitor cells; assay type: cell-based; settings: human bone marrow clonogenic assay
Source text: as §1

human DNA polymerase γ [7] = target: T1, human DNA polymerase γ (Homo sapiens, UniProt P54098); settings: from Chang, et al. / Yao; cited from earlier work
T1 sequence (P54098 1-1239): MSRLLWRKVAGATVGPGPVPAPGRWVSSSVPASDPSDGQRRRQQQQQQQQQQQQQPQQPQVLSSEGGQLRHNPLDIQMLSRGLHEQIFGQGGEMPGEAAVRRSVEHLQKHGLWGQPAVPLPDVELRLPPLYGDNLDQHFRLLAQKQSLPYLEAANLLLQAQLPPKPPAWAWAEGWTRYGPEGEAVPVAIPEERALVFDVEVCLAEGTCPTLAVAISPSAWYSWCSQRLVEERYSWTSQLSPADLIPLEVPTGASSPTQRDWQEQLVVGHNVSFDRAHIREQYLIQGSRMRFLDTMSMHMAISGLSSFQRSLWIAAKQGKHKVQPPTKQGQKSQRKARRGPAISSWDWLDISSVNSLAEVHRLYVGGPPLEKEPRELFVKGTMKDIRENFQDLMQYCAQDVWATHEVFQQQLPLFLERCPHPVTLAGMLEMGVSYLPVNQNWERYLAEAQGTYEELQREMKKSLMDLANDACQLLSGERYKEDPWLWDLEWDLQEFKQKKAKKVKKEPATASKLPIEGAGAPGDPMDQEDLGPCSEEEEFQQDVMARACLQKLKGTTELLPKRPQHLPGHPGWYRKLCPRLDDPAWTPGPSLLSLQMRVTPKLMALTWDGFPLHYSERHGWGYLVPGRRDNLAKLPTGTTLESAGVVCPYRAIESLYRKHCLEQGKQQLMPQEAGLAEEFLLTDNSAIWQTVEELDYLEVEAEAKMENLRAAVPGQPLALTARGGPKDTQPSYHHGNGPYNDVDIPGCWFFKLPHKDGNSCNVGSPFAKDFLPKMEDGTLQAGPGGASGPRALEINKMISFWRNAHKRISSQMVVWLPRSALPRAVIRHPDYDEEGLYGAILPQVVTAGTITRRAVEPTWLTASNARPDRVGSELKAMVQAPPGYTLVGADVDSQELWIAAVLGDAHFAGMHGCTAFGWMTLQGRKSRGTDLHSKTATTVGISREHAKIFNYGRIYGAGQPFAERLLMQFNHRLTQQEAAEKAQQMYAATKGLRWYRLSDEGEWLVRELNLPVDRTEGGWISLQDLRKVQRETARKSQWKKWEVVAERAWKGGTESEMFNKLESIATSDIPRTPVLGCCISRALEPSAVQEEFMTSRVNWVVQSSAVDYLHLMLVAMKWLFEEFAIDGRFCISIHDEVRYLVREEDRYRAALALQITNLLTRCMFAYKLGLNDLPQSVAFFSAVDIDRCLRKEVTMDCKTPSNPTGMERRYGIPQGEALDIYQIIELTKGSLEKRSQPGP

human DNA polymerase β [8] = target: T2, human DNA polymerase β (Homo sapiens, UniProt P06746); settings: from Chang, et al. / Yao, read-out: IC50 Human DNA pol β; cited from earlier work
[9] = target: virion-associated DNA polymerase of WHV (Woodchuck hepatitis B virus, UniProt P03160); test: biochemical
virion-associated DNA polymerase of WHV, sequence (P03160 whole entry): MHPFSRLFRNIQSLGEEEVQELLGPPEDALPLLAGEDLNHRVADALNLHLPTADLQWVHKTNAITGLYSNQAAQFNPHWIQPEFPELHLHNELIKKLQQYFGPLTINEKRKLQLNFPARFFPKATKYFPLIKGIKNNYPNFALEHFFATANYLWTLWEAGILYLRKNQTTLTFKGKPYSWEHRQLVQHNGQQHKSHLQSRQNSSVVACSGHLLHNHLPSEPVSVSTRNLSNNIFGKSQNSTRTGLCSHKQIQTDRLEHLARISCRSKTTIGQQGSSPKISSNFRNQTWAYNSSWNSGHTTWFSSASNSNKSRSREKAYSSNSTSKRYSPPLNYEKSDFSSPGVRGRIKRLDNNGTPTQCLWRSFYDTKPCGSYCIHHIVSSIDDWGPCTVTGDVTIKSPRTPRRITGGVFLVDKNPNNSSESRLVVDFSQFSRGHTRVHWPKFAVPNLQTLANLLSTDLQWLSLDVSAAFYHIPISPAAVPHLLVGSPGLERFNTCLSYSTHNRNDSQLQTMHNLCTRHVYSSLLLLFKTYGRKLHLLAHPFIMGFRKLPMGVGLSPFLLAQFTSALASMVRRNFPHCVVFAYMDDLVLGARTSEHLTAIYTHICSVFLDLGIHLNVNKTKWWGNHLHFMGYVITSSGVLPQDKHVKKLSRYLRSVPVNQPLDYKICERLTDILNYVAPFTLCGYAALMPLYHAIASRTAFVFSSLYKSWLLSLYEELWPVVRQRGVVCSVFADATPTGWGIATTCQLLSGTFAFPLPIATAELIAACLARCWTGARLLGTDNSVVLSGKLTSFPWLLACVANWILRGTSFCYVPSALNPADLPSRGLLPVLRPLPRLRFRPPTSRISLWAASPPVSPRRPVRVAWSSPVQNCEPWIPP

[10] = Single dose bioavailability of dival-L-dC (IV and oral) in cynomologus monkey; assay type: in vivo, cynomologus monkey (macaca fascicularis); settings: oral dival-L-dC; analyte = label
Source text: The drug was quantitated in plasma and urine with a liquid chromatography-mass spectrometry (LC-MS) technique.

[11] = Bioavailability of the prodrugs of L-dC in monkeys, with and without L-dT; settings: for % BA (bioavailability of L-dC): estimated relative to AUC of L-dC (oral dose)
[12] = for Tlast: analyte = label
[13] = Day 25, analyte = label
[14] = Oral bioavailability of L-dC via dival-L-dC in cynomologus monkey (HPLC study)
Source text: The drug was quantitated in plasma and in urine using HPLC analysis.

[15] = Escalating oral dose toxicity of dival-L-dC in monkeys; assay type: in vivo, cynomologus monkey
Source text: […]. […] Clinical observations were documented daily. Blood samples for hematology and serum chemistries were collected and body weight measured before treatment on Days 1, 4, 7, 10, and 14, and before necropsy on Day 17. After completion of Day 17 evaluations, all animals were euthanized and a complete necropsy performed, including macroscopic examination and comprehensive tissue collection.

[16] = Solubility study in water (HPLC); settings: for Solubility (mol/L) / Solubility (g/L): in water
[17] = octanol-1 / MilliQ water pH 6.5; Study 1, Study 2; listed as L-dC-3′,5′-divalinyl ester hydrochloride
Procedure: (§2) To 1 mL of this solution, 1 mL of octanol-1 (B) saturated with MilliQ water (A′) was added.
as §2

[18] = Log P study, octanol-1/phosphate buffer pH 7.2
[19] = human
HepG2 cells [20] = settings: human
human DNA polymerase γ [21] = target: T1, human DNA polymerase γ; assay type: biochemical; settings: highest concentration tested 100 μM
Source text: (§3) Nucleosides and nucleoside analogs are usually metabolized within cells to their TP derivatives. Cellular DNA polymerases are routinely responsible for normal nuclear and mitochondrial DNA synthesis and repair. Because the TP metabolites are potential substrates for DNA polymerases, studies were undertaken to determine if L-dC-TP inhibited human DNA polymerases.

human DNA polymerase β [22] = target: T2, human DNA polymerase β; assay type: biochemical; settings: highest concentration tested 100 μM; read-out: IC50 Human DNA pol β
Source text: as §3

[23] = test system: primary human hepatocytes; settings: 24 h, 10 μM
in vitro = settings: human
[24] = endogenous polymerase assay, read-out: IC50 Viral DNA pol (WHV DNA polymerase)

## O=c1[nH]c(=O)n([C@@H]2O[C@H](CO)[C@@H](O)[C@@H]2F)cc1I [FIAU, fialuridine, reference compound]
[1]
  CC50 at 14 days: 4000 nM
HepG2 cells [2]
  mtDNA, % of Control: 86 % of Control

## Cc1cn([C@H]2C[C@H](O)[C@@H](CO)O2)c(=O)[nH]c1=O [Thd, D-thymidine]
[3]
  Vmax of phosphorylation: 1.26 nmol/min/mg protein

## CC(=O)OC[C@@H]1O[C@H](n2ccc(N)nc2=O)C[C@H]1OC(C)=O [3′5′-diacetyl-L-dC, 3′,5′-Di-O-acetyl-2′-deoxy-β-L-cytidine]
[4]
  % BA (bioavailability of L-dC): 23.0 ± 6.5%

## Cc1cn([C@H]2C[C@H](N=[N+]=[N-])[C@@H](CO)O2)c(=O)[nH]c1=O [ZDV, zidovudine, reference compound]
[1]
  CC50 at 14 days: 14000 nM
HepG2 cells [2]
  mtDNA, % of Control: 119 % of Control
[5]
  IC50: 1800 nM
[6]
  IC50: 700 nM

## Nc1ccn([C@@H]2CS[C@H](COP(=O)(O)OP(=O)(O)OP(=O)(O)O)O2)c(=O)n1 [Lamivudine-TP]
Human DNA polymerase γ [7]
  IC50: 10 nM
Human DNA polymerase β [8]
  IC50: 1200 nM
[9]; [24]
  IC50: 500 ± 100 nM

## O=c1ccn([C@@H]2C[C@@H](O)[C@H](CO)O2)c(=O)[nH]1 [L-dU, β-L-2′-deoxyuridine]
[10]
  share of drug excreted / recovered dose in urine, by analyte: approximately 2.5%

## CC(C)[C@H](N)C(=O)OC[C@@H]1O[C@H](n2ccc(N)nc2=O)C[C@H]1O [5′-val-L-dC, 5′-L-valine ester of 2′-deoxy-β-L-cytidine hydrochloride]
[11]; oral
  % BA (bioavailability of L-dC): 39.0 ± 11.4%
[12]; dival-L-dC 1000 mg/kg/day oral, Day 1, F
  Tlast: 4 h
[12]; dival-L-dC 1000 mg/kg/day oral, Day 1, M
  Tlast: 4 h
[12]; dival-L-dC 1000 mg/kg/day oral, Day 28, F
  Tlast: 4 h
[12]; dival-L-dC 1000 mg/kg/day oral, Day 28, M
  Tlast: 8 h
[12]; dival-L-dC 2000 mg/kg/day oral, Day 1, F
  Tlast: 8 h
[12]; dival-L-dC 2000 mg/kg/day oral, Day 1, M
  Tlast: 8 h
[12]; dival-L-dC 2000 mg/kg/day oral, Day 28, F
  Tlast: 24 h
[12]; dival-L-dC 2000 mg/kg/day oral, Day 28, M
  Tlast: 8 h
[13]; dival-L-dC 1000 mg/kg/day oral, F
  Tlast (median): 4 h
[13]; dival-L-dC 1000 mg/kg/day oral, M
  Tlast (median): 5 h
[13]; dival-L-dC 2000 mg/kg/day oral, F
  Tlast (median): 8 h

## CC(C)[C@H](N)C(=O)OC[C@@H]1O[C@H](n2ccc(N)nc2=O)C[C@H]1OC(=O)[C@@H](N)C(C)C [dival-L-dC, 3′,5′-L-divaline ester of 2′-deoxy-β-L-cytidine]
[14]; after 72 hours
  administered oral dose recovered in urine: 31%
[14]; within 8 hours
  administered oral dose recovered in urine: Approximately 26%
[15]; 20 mg/kg oral, each animal
  loss in body weight following the initial dose on Day 1: approximately 0.6 kg
[15]; cumulative, all four monkeys
  BUN decrease at Day 17 compared to Day 1: ~43%
[15]; single oral dose by gavage (escalation 20-2000 mg/kg), monkey
  NOAEL: 2000 mg/kg
[11]
  share of the oral dose absorbed: approximately 73%
[11]; oral
  share of the absorbed ester converted to L-dC: more than 99%
[11]; oral, coadministered with 10 mg/kg L-dT
  % BA w/ L-dT: 74.6 ± 9.9%
[11]; oral, listed as 3′,5′-divaline ester of L-dC
  % BA (bioavailability of L-dC): higher oral bioavailability than the parent L-dC
[11]; oral, listed as L-dC di-valine
  % BA (bioavailability of L-dC): 72.7 ± 22.0%
[16]; listed as 3′,5′-divalinyl ester hydrochloride of β-L-dC
  Solubility (mol/L): more than 2.5 mol/L
[17]
  P′ (B/A′): 1.80 × 10^−3 and 1.77 × 10^−3
[18]
  conversion detected in the organic phase during log P experiment: 14%
[19]
  plasma protein binding: 13.3%±2.6%
[12]; 28 day oral, rat
  NOAEL: < 500 mg/kg

## Nc1ncnc2c1ncn2[C@@H]1CC[C@H](COP(=O)(O)OP(=O)(O)OP(=O)(O)O)O1 [L-ddA-TP]
[9]; [24]
  IC50: 2000 ± 300 nM

## Nc1ccn([C@H]2C[C@H](O)[C@@H](CO)O2)c(=O)n1 [D-dC, D-Deoxycytidine, reference compound]
[16]
  Solubility (g/L): 272 g/L (≈ 1200 mM)
  Solubility (mol/L): 1.03 mol/L (≈ 234 mg/mL)
[3]
  Vmax of phosphorylation: 2.15 nmol/min/mg protein

## O=c1ccn([C@@H]2C[C@@H](O)[C@H](COP(=O)(O)OP(=O)(O)OP(=O)(O)O)O2)c(=O)[nH]1 [L-dU-TP, β-L-2′-deoxyuridine 5′-triphosphate]
HepG2 cells [20]; 24 h, 10 μM
  intracellular metabolite level: 18.2 ± 1.0 µM
Human DNA polymerase γ [21]
  IC50: > 100000 nM
Human DNA polymerase β [22]
  IC50: > 100000 nM
[23]
  intracellular metabolite level: 43.5 ± 27 µM
[9]
  IC50: 5260 nM

## CC(C)[C@H](N)C(=O)O[C@@H]1C[C@@H](n2ccc(N)nc2=O)O[C@H]1CO [3′-val-L-dC, 3′-L-valine ester of 2′-deoxy-β-L-cytidine]
[11]; oral
  % BA (bioavailability of L-dC): 85.1 ± 24.5%
[16]
  Solubility (g/L): >408 g/L
[16]; listed as 3′-valinyl ester hydrochloride of β-L-dC
  Solubility (g/L): > 408 g/L
[16]; water, saturation not obtained, 3 samples, listed as 3′-valinyl ester hydrochloride of β-L-dC
  Concentration of solution of the maximum quantity available, single samples: 1.013 mol/L and 0.996 mol/L and 1.059 mol/L

## Cc1cn([C@H]2O[C@@H](COP(=O)(O)OP(=O)(O)OP(=O)(O)O)[C@H](O)[C@H]2F)c(=O)[nH]c1=O [L-FMAU-TP]
Human DNA polymerase γ [7]
  IC50: > 50000 nM
Human DNA polymerase β [8]
  IC50: > 50000 nM
[9]; [24]
  IC50: 150 ± 50 nM

## Nc1ccn([C@H]2CC[C@@H](CO)O2)c(=O)n1 [ddC, zalcitabine, reference compound]
[1]
  CC50 at 14 days: 20000 nM

## Nc1ccn([C@@H]2C[C@@H](O)[C@H](COP(=O)(O)OP(=O)(O)OP(=O)(O)O)O2)c(=O)n1 [L-dC-TP]
HepG2 cells [20]
  apparent intracellular half-life: 15.5 ± 0.34 h
Human DNA polymerase γ [21]
  IC50: > 100000 nM
Human DNA polymerase β [22]
  IC50: > 100000 nM
In vitro
  half-life: 15.5 h
[9]
  IC50: 1820 nM
